In the supplement of paper PMC8837787:

System: Saccharomyces cerevisiae ABC16-Green Monster
Assay: growth inhibition at single dose (up to 150 µM), below the 70% cut-off for dose-response; higher = more potent
Details: 18 h; 30 °C; YPD
In short: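 Drug-sensitive S. cerevisiae ABC16-Green Monster cells were grown overnight in YPD at 30 °C and diluted to log phase (OD600 0.1–0.2). Each library compound was added at one dose of 150 µM to 200 µl culture per well in 96-well plates, in biological duplicates, with untreated cultures alongside. OD600 was read at 0 h and after 18 h at 30 °C. The value is percent growth inhibition; compounds below 70% in both replicates were not taken to dose-response.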

| SMILES | growth inhibition at single dose [%] |
| --- | --- |
| O=S(=O)(c1ccc(Cl)cc1)N1CCN(C(=S)NCc2ccco2)CC1 | < 70 |
| CNc1snc(C)c1C(=O)NCCOc1ccc(OC)cc1 | < 70 |
| CN1CCN(c2nccc3nc(-c4ccc(F)c(F)c4)[nH]c23)CC1 | < 70 |
| CC(C)(C)c1cc(C(=O)N2CCN(c3nccnc3C#N)CC2)n(Cc2ccccc2)n1 | < 70 |
| CCOC(=O)C1=C(C)N=c2sc(=Cc3cc(Cl)ccc3O)c(=O)n2C1c1ccc(OC)cc1 (centres undefined) | < 70 |
| OC1CCN(c2nn3cc(-c4ccccc4)nc3s2)CC1 | < 70 |
| Cc1nc(NCc2ccco2)c2c(C)c(C)sc2n1 | < 70 |
| NCC(c1cccs1)S(=O)(=O)c1ccccc1 (centres undefined) | < 70 |
| O=C(COc1ccc(Oc2ccccc2)cc1)NCc1cn2ccccc2n1 | < 70 |
| CC(C)(CN)c1nc(-c2ccc(Cl)c(O)c2)c(-c2ccnc(N)n2)[nH]1 | < 70 |
| Cc1nc(-c2ccccn2)nc(N2CCCC2)c1Cl | < 70 |
| COc1ccc(CCn2nc(C(=O)NC3CC3)c3c2CCN(C(=O)c2cc(C)n[nH]2)C3)cc1 | < 70 |
| CC(C)CNC(=O)c1c(N)n(CCc2ccccc2F)c2nc3ccccc3nc12 | < 70 |
| CCOc1ccc(OCC(=O)Nc2cc(C)cc(C)c2)cc1 | < 70 |
| CC(C)NCC(=O)Nc1cccc(C(=O)Nc2cccc(C(F)(F)F)c2)c1 | < 70 |
| CC(C(=O)Nc1ccc2oc(-c3ccncc3)nc2c1)c1ccccc1 (centres undefined) | < 70 |
| CCc1ccc(-n2nnnc2-c2cnc(N)nc2-c2ccccc2)cc1 | < 70 |
| CCc1ccc(C(NCc2nc(N)nc(N(C)C)n2)C(C)C)cc1 (centres undefined) | < 70 |
| CCN1CCN(c2cc(C)c3cc(NC(=O)c4ccc(OC)c(OC)c4)ccc3n2)CC1 | < 70 |
| Cc1cccc(Nc2nc(N)c3ccccc3n2)c1 | < 70 |
| N=C(N)N/N=C/c1ccc(Cl)cc1Cl | < 70 |
| O=C1COCc2ccc(Br)cc2N1Cc1ccc(C(F)(F)F)cc1 | < 70 |
| CCn1nc(C)c(Sc2nccn2C)c1C | < 70 |

| SMILES | growth inhibition at single dose [%] |
| --- | --- |
| CN(CC(=O)NC1CC1)C(=O)CNc1ccccc1Oc1ccccc1 | < 70 |
| Cc1[nH]c2cc(F)cc(F)c2c(=O)c1-c1ccc(Oc2ccc(OC(F)(F)F)cc2)cc1 | < 70 |
| CCOC(=O)c1cnc2c(CC)cccc2c1O | < 70 |
| CNC(=O)C1Cc2c([nH]c3cc(Cl)ccc23)C2(CCN(CCc3ccccc3)CC2)N1 (centres undefined) | < 70 |
| Cc1ccc(-c2nc3ccccc3o2)cc1NCc1cc(Cc2ccccc2)ccc1O | < 70 |
| CCC(O)c1ccc(Br)cc1NC(=O)c1cccc(Cl)c1 (centres undefined) | < 70 |
| COc1ccc2c(c1OC)C(=O)N1c3ccccc3N=C(c3ccc(C)cc3)CC21 (centres undefined) | < 70 |
| COc1cc2c(cc1NC(=O)C(C)N1CCC(C(N)=O)CC1)oc1ccccc12 (centres undefined) | < 70 |
| O=[N+]([O-])c1ccc(C=NNc2nc3ccccc3[nH]2)cc1 | < 70 |
| Cc1cc([N+](=O)[O-])cc(S(=O)(=O)N(Cc2ccc(C(=O)NC3CC3)cc2)C2CC2)c1C | < 70 |
| COc1ccnc(Nc2ccc3c(c2)nc2n3CCCCC2)n1 | < 70 |
| Cc1ccc(S(=O)(=O)N2CCN(C(=O)c3cc(-c4ccccc4)[nH]n3)CC2)cc1 | < 70 |
| Cc1ccc(/C=C2\CCc3c2nc2ccccc2c3C(=O)OCC#N)cc1 | < 70 |
| Cc1cc(C(=O)Cn2c(CO)nc3ccccc32)c(C)n1Cc1ccco1 | < 70 |
| N=c1n(CCN2CCCCC2)c2ccccc2n1CC(=O)c1ccc(Cl)c(Cl)c1 | < 70 |
| Cc1ccc(Cn2c(N3CCC(C(=O)NCc4cccs4)CC3)nc3ccccc32)cc1 | < 70 |
| NS(=O)(=O)c1cccc(-c2ccc3ncc(N4CCOCC4)nc3c2)c1 | < 70 |
| CCC(C)NC(=O)c1ccc(NC(=O)C2(c3ccccc3)CCCC2)cc1 (centres undefined) | < 70 |
| COC(=O)c1cc(OC)c(OC)cc1NS(=O)(=O)c1ccc(Cl)cc1 | < 70 |
| CN(C)S(=O)(=O)c1ccc2oc(SCC(=O)Nc3cc(C(C)(C)C)no3)nc2c1 | < 70 |
| Cc1ccc(NC(=O)c2cc(S(=O)(=O)NC(C)(C)C)ccc2C)nc1 | < 70 |
| COc1cc(CNC(=O)c2scnc2C)ccc1OC1CCCC1 | < 70 |
| CCOc1ccc(-c2nc(CC(=O)NCc3ccnc(OC)c3)cs2)cc1 | < 70 |

| SMILES | growth inhibition at single dose [%] |
| --- | --- |
| COc1ccc(C(=O)Nc2ccc3nc(N4CCCCC4)cc(C)c3c2)cc1OC | < 70 |
| COc1cc(CNCCc2ccc(Cl)cc2)cc(OC)c1O | < 70 |
| COc1cccc(Cn2c(Oc3ccccc3)nc3c2c(=O)n(C)c(=O)n3C)c1 | < 70 |
| CN1CCN(CCCOc2ncc(Nc3ncc(-c4ccc(C(F)(F)F)c(F)c4)nc3C(N)=O)cn2)CC1 | < 70 |
| Cc1cc(=O)nc(N/N=C/c2c(C)nn(-c3cccc(C(F)(F)F)c3)c2Cl)[nH]1 | < 70 |
| CCN(CC)S(=O)(=O)c1ccc(Cl)c(C(=O)Nc2ccc3nc(C)sc3c2)c1 | < 70 |
| COc1ccc(-c2cncc3ccc(C(=O)NCCCn4ccnc4)nc23)cc1 | < 70 |
| COc1ccc2nc(C)cc(OCC(=O)NCc3ccccc3)c2c1 | < 70 |
| Cc1ccsc1C(=O)Nc1ccc(N2CCN(C)CC2)cn1 | < 70 |
| Cn1ccnc1SCC(=O)Nc1ccc(C(=O)Nc2ncccc2O)cc1 | < 70 |
| COc1cc(C(=O)Nc2ccc(-c3nc4ccccc4[nH]3)cc2)cc(OC)c1OC | < 70 |
| N#CC(C(=O)c1cc(S(=O)(=O)N2CCc3ccccc3C2)ccc1Cl)c1ccccn1 (centres undefined) | < 70 |
| CC1COC2(CCN(c3nc(=O)c4cc(C(F)(F)F)cc([N+](=O)[O-])c4s3)CC2)O1 (centres undefined) | < 70 |
| COc1cc2c(cc1OC)CN(CCNc1ncnc3sccc13)CC2 | < 70 |
| Cc1ccc(S(=O)(=O)Nc2cccc3ncccc23)s1 | < 70 |
| CNc1cc(C)nc(C2CN(C(=O)c3n[nH]c4ccccc34)CCO2)c1 (centres undefined) | < 70 |
| CC(C)NC(=O)N1CCCC(C(=O)Nc2nc3ccccc3[nH]2)C1 (centres undefined) | < 70 |
| COc1cc(/C=N/NC(=O)c2ccccc2NS(=O)(=O)c2cccs2)ccc1OCCC(C)C | < 70 |
| COC(=O)Cc1[nH]n(-c2nc3ccccc3s2)c(=O)c1C(C)=NCCO | < 70 |
| O=C(NC1CCCCC1)C(c1cccs1)N(CCc1ccccc1)C(=O)c1ccco1 (centres undefined) | < 70 |
| Nc1nn(C(=O)c2csc3ccccc23)c2ccccc12 | < 70 |
| Clc1ccc2c(N3CCCC3)ccnc2c1 | < 70 |
| Cc1cc(Nc2cccc(C(F)(F)F)c2)n2ncc(C#N)c2n1 | < 70 |
